Reference: PMC8558867, “Development of BromoTag: A “Bump-and-Hole”–PROTAC System to Induce Potent, Rapid, and Selective Degradation of Tagged Target Proteins” (Journal of Medicinal Chemistry, 2021)
Each block holds one compound with its values, some of them ahead of it.

Experiments:
[1] = system: BromoTag-Brd2; experiment: Dose–response degradation assay (western blot, 6 h) in heterozygous BromoTag-Brd2 HEK293 cells; type: cell-based, human; conditions: 6 h; for pDC50 (Ab: Brd^4BD2 L387A) / pDC50 (Ab: BromoTag-Brd2): eight-point 10 μM to 1 nM, mean ±S.E. of two repeats; for DC50: read-out: DC50 of BromoTag-Brd2 degradation (DC50, 6h), single stereoisomers
[2] = target: T1, VHL (VCB protein) (Homo sapiens, UniProt P40337); experiment: FP competitive binding assay, binary binding; conditions: compound alone; mean ±S.E.M., N = 4; read-out: binary affinity to VHL Kd
T1 construct: N-terminally His6-tagged VHL (54–213); His6 (N, cleaved yes); made in house; host or cells: E. coli

[3] = system: BromoTag-Brd2; experiment: Time course degradation assay (western blot, 0–36 h) in heterozygous BromoTag-Brd2 HEK293 cells; type: cell-based, human; conditions: 500 nM 47, 1 μM 48, over 36 h
Protocol: Heterozygous BromoTag-Brd2 HEK293 cells were plated at a density of 5 × 10^5 cells per well of a six-well healthy plate a day prior to initiating the time course assay. […] The time point range was between 0 and 36 h. Treatment was applied in a staggered fashion to enable all time points to be harvested at the same time.
All cells were harvested on ice with RIPA lysis and extraction buffer (Thermo Fisher Scientific, 89901) supplemented with protease inhibitor cocktail (Merck, 11697498001) and Benzonase Nuclease (Sigma, E1014) before being stored at −20 °C prior to use. Total protein quantity was determined using the BCA protein assay (#23225, Pierce, Rockford, Illinois). The protein concentration was determined using the BCA assay (Thermo Fisher Scientific, 23225). The samples were then prepared and loaded onto NuPAGE 4–12% bis–tris Midi gels (Thermo Fisher Scientific, WG1403A), followed by the transfer of proteins onto nitrocellulose membranes (EMD Millipore). The membranes were blocked for 1 h prior to incubation with the primary antibodies using 5% Milk TBST. […] All western blots were analyzed for band intensities using Image Lab from Bio-Rad (LI-COR, Biosciences). The data extracted from these blots were then plotted and analyzed using Prism (v. 8.2.0, GraphPad).

[4] = target: T2, VHL with Brd4^BD2 L387A (Homo sapiens, UniProt O60885+P40337, L387A); experiment: FP competitive binding assay, ternary complex binding (compound preincubated with Brd4^BD2 L387A); conditions: for α (FP binding): cooperativity, Kd binary/Kd ternary, supplementary CSV; for Kd: preincubated with Brd4^BD2 L387A, mean ±S.E.M., N = 4, read-out: ternary binding affinity Kd; for cooperativity (α): α = Kd binary/Kd ternary
T2 construct: N-terminally His6-tagged VHL (54–213); His6 (N, cleaved yes); made in house; host or cells: E. coli

[5] = system: 22RV1 cells; experiment: CellTiter-Glo 2.0 cell viability assay, 22RV1; type: cell-based, human; conditions: Homo sapiens; 22RV1, 48 Hours, mean ±S.E.M, N = 2; read-out: pEC50 (cell viability) (converted)

Structure (SMILES): CC[C@@H](C(=O)OCCOCCCOCC(=O)N[C@H](C(=O)N1C[C@H](O)C[C@H]1C(=O)N[C@@H](C)c1ccc(-c2scnc2C)cc1)C(C)(C)C)[C@@H]1N=C(c2ccc(Cl)cc2)c2c(sc(C)c2C)-n2c(C)nnc21 [AGB2 (47), 2-(3-(2-(((S)-1-((2S,4R)-4-Hydroxy-2-(((S)-1-(4-(4-methylthiazol-5-yl)phenyl)ethyl)carbamoyl)pyrrolidin-1-yl)-3,3-dimethyl-1-oxobutan-2-yl)amino)-2-oxoethoxy)propoxy)ethyl (R)-2-((S)-4-(4-chlorophenyl)-2,3,9-trimethyl-6H-thieno[3,2-f][1,2,4]triazolo[4,3-a][1,4]diazepin-6-yl)butanoate]
- pDC50 (Ab: Brd^4BD2 L387A) [1]: 9.0 ± 0.4
- pDC50 (Ab: BromoTag-Brd2) [1]: 8.6 ± 0.2
- DC50 [1]: 1 to 3 nM
- Kd [2]: 45 nM
- extent of BromoTag-Brd2 degradation in the time course experiment [3]: near-complete target degradation
- α (FP binding) [4]: 3.6
- Kd [4]: 12 nM
- cooperativity (α) [4]: 3.6

Structure (SMILES): CC[C@@H](C(=O)NCCOCCOCCOCC(=O)N[C@H](C(=O)N1C[C@H](O)C[C@H]1C(=O)NCc1ccc(-c2scnc2C)cc1)C(C)(C)C)[C@@H]1N=C(c2ccc(Cl)cc2)c2c(sc(C)c2C)-n2c(C)nnc21 [AGB3 (48), (2S,4R)-1-((2S,17R)-2-(tert-Butyl)-17-((S)-4-(4-chlorophenyl)-2,3,9-trimethyl-6H-thieno[3,2-f][1,2,4]triazolo[4,3-a][1,4]diazepin-6-yl)-4,16-dioxo-6,9,12-trioxa-3,15-diazanonadecanoyl)-4-hydroxy-N-(4-(4-methylthiazol-5-yl)benzyl)pyrrolidine-2-carboxamide]
- pDC50 (Ab: Brd^4BD2 L387A) [1]: 6.5 ± 0.3
- pDC50 (Ab: BromoTag-Brd2) [1]: 6.7 ± 0.1
- DC50 [1]: 210 to 290 nM
- Kd [2]: 102 nM
- α (FP binding) [4]: 10.9
- Kd [4]: 9 nM
- cooperativity (α) [4]: 10.9

- EC50 [5]: > 10 µM
Structure (SMILES): Cc1ncsc1-c1ccc(CNC(=O)[C@@H]2C[C@H](O)CN2C(=O)[C@@H](NC(=O)COCCOCCOCCNC(=O)C[C@@H]2N=C(c3ccc(Cl)cc3)c3c(sc(C)c3C)-n3c(C)nnc32)C(C)(C)C)cc1 [cis-MZ1]
